What was measured:
[1] = tested on: βARR1-RLuc8 or Gαq-RLuc8 and Rab5a-Venus; assay: BRET of βARR1 and Gαq translocation to early endosomes in HEK293 cells; format: cell-based; conditions: trypsin 100 nM
Protocol: To determine whether trypsin induces translocation of βARR and Gαq to endosomes, we measured BRET between βARR1-RLuc8 or Gαq—RLuc8 and Rab5a-Venus in HEK293 cells. […] Immunofluorescence and structured illumination microscopy were used to localize PAR2-HA, Gαq and early endosomal antigen-1 (EEA1) in HEK-293 cells. In unstimulated cells, PAR2 was confined to the plasma membrane, although Gαq was detected in early endosomes (FIG. 18C). Trypsin (10 nM, 30 min) induced translocation of PAR2 to early endosomes containing Gαq. The results support the hypothesis that trypsin causes assembly of a PAR2/βARR/Gαq signalosome in early endosomes.
HEK293 cells were transiently transfected in 10 cm dishes (˜50% confluency) with: PAR2-RLuc8 (1 μg) and either RIT-Venus or Rab5a-Venus (both 4 μg); Flag-PAR2-HA (1 μg) and βARR1-RLuc8 (1 μg) plus Rab5a-Venus (4 μg); or Flag-PAR2-HA (1 μg) and Gαq-RLuc8 (0.5 μg), Gb (1 μg), Gg (1 μg) and Rab5a-Venus (4 μg). […] RLuc8 and YFP intensities were measured at 475±30 nm and 535±30 nm, respectively, using a LUMIstar Omega Microplate Reader (BMG LabTech) before and after challenge with proteases, biopsy supernatants or vehicle. Data are presented as a BRET ratio, calculated as the ratio of YFP to RLuc8 signals, and normalized to the baseline average, followed by vehicle subtraction. Treatment effects were determined by comparison of area under the curve values.

DRG neurons = assay: Ca2+ assays in DRG neurons; format: cell-based, mouse; conditions: trypsin 100 nM
Description: Proteases may induce pain by activating PAR2 on nociceptors or other cell types. To determine the contribution of PAR2 on nociceptors, mice were bred expressing PAR2 flanked by LoxP sites (Par2^lox/lox) with mice expressing Cre recombinase targeted to nociceptors using the NaV1.8 promoter (Scn10a) (Stirling L. C. et al., Pain 2005, 113(1-2): 27-36). Par2-NaV1.8 mice lacked immunoreactive PAR2 in NaV1.8-positive nociceptors (FIG. 1A). Whereas 31% (20 of 65) of small-diameter (<25 μm) DRG neurons from WT mice responded to trypsin (100 nM) with increased [Ca^2+]i, only 6% (3 of 51) of neurons from Par2-NaV1.8 mice responded (FIGS. 1B, 11A, and 11B). Nociception was assessed by measuring withdrawal responses to stimulation of the plantar surface of the hindpaw with von Frey filaments. […] In Par2-NaV1.8 mice, the initial responses were maintained, but responses after 120 min were diminished. […] Trypsin-induced inflammation was markedly diminished in Par2-NaV1.8 mice.
[Ca^2+]i was measured in DRG neurons from WT and Par2-NaV1.8 mice, as described (Tsvetanova, N. G., et al., Nat. Chem. Biol. 2014, 10(12): 1061-1065). […] Fluorescence of individual neurons was measured at 340 nm and 380 nm excitation and 530 nm using a Nikon Eclipse Ti microscope with 20× magnification and a Photometrics CoolSNAP camera. Data were analyzed using Nikon Ti Element Software. […]

trypsin
βARR1-RLuc8/Rab5a-Venus BRET and Gαq-RLuc8/Rab5a-Venus BRET [1]: stimulated an increase | small-diameter DRG neurons responding with increased [Ca2+]i, Par2-NaV1.8 mice (DRG neurons; 3 of 51 neurons): 6% | small-diameter DRG neurons responding with increased [Ca2+]i, WT mice (DRG neurons; 20 of 65 neurons): 31%
